The source made the active and inactive calls. The rule behind the calls is not given here.
What was measured:
[1] = target: T1, Acid-sensing ion channel 1 (Mus musculus) (UniProt Q6NXK8); assay: Inhibition of mouse ASIC1a expressed in genetically engineered-CHO-K1 cells at 10 uM preincubated for 10 mins at pH 7.4 followed by cell stimulation with proton injection at pH 6.5 by electro-chromic fluorescence voltage sensor-based assay relative to control
T1 sequence (whole entry): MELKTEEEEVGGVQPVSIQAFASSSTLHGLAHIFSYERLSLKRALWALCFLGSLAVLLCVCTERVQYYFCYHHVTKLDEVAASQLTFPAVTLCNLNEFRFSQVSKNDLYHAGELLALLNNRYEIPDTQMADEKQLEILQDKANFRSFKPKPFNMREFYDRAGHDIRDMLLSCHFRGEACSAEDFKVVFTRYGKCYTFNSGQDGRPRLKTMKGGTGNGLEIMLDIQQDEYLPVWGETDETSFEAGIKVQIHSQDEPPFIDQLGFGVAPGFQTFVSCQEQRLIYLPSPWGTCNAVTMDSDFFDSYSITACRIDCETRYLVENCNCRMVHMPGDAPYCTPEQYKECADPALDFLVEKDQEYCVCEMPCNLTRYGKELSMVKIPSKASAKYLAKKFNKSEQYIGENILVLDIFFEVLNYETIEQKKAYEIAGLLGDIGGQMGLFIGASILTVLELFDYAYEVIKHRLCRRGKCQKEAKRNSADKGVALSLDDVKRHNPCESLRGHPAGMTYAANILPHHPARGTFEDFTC

[2] = test system: Cortical neurone; assay: Neuroprotective activity in OGD/Rx-induced E16 Wistar rat Primary cortical neurons assessed as increase in cell viability at 2.59 uM incubated for 3 hrs during OGD followed by reoxygenation with compound re-addition measured after 21 hrs by MTT assay; assay type: functional, cell-based
[3] = target: T2, Acid-sensing ion channel 2 (Mus musculus) (UniProt Q925H0); assay: Inhibition of mouse ASIC2a expressed in genetically engineered-CHO-K1 cells at 10 uM preincubated for 10 mins at pH 7.4 followed by cell stimulation with proton injection at pH 6.5 by electro-chromic fluorescence voltage sensor-based assay relative to control
T2 sequence (whole entry): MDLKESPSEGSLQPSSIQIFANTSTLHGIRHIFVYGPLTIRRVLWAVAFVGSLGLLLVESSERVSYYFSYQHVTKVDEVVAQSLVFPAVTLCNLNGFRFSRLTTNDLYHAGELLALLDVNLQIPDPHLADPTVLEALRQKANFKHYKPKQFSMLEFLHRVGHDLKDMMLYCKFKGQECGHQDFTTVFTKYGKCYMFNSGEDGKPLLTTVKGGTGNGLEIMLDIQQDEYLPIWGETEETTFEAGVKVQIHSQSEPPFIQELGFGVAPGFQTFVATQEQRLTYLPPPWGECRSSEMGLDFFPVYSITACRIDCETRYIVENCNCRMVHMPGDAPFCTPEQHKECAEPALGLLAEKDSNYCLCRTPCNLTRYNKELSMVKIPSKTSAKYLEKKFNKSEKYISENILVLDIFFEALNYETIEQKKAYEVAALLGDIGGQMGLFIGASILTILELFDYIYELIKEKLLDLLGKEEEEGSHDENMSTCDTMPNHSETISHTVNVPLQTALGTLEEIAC

[4] = target: T3, Acid-sensing ion channel 1 (Homo sapiens, UniProt P78348); assay: Inhibition of human ASIC1a in HEK293 cells assessed as inward proton-gated current at pH 6.0 incubated with compound followed by PcTx1 addition by patch-clamp electrophysiology; assay type: cell-based
T3 sequence (P78348 whole entry): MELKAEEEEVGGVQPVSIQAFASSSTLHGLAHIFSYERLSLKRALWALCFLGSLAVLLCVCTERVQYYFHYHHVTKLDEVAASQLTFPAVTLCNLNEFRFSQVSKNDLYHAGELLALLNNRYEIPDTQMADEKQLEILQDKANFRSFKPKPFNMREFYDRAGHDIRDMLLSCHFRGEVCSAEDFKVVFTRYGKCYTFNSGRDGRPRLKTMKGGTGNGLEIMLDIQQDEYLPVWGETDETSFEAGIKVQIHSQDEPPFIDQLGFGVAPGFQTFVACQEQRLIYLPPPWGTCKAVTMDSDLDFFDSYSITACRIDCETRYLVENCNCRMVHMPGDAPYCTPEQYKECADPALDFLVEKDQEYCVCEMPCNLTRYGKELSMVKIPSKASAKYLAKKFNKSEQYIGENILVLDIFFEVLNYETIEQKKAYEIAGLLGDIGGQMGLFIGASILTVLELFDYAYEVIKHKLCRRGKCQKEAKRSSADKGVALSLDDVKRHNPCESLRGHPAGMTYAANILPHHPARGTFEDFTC

[5] = test system: Cortical neurone; assay: Neuroprotective activity in OGD/Rx-induced E16 Wistar rat Primary cortical neurons assessed as increase in cell viability incubated for 3 hrs during OGD followed by reoxygenation with compound re-addition measured after 21 hrs by MTT assay; assay type: functional, cell-based; conditions: time 24.0 hrs
[6] = test system: Cortical neurone; assay: Neuroprotective activity in OGD/Rx-induced E16 Wistar rat Primary cortical neurons assessed as increase in cell viability at 2.1 uM incubated for 3 hrs during OGD followed by reoxygenation with compound re-addition measured after 21 hrs by MTT assay; assay type: functional, cell-based; conditions: time 24.0 hrs
[7] = test system: Cortical neurone; assay: Neuroprotective activity in OGD/Rx-induced E16 Wistar rat Primary cortical neurons assessed as increase in cell viability at 2.1 uM incubated for 3 hrs during OGD followed by compound removal and reoxygenation measured after 21 hrs by MTT assay; assay type: functional, cell-based
[8] = test system: Mus musculus; assay: Neuroprotective activity in mouse model of middle cerebral artery occlusion-induced transient brain ischemia assessed as decrease in ischemic volume at 0.6 mg/kg, ip administered thrice measured after 24 hrs (reference value: 58 +/- 2.6 %); assay type: functional; parameters: scale not given: the % may be the effect or the level left
[9] = test system: Cortical neurone; assay: Neuroprotective activity in OGD/Rx-induced E16 Wistar rat Primary cortical neurons assessed as increase in cell viability at 9.5 uM incubated for 3 hrs during OGD followed by reoxygenation with compound re-addition measured after 21 hrs by MTT assay; assay type: functional, cell-based; conditions: time 24.0 hrs
[10] = test system: Cortical neurone; assay: Neuroprotective activity in OGD/Rx-induced E16 Wistar rat Primary cortical neurons assessed as increase in cell viability at 2.9 uM incubated for 3 hrs during OGD followed by reoxygenation with compound re-addition measured after 21 hrs by MTT assay; assay type: functional, cell-based; conditions: time 24.0 hrs
[11] = test system: Mus musculus; assay: Neuroprotective activity in mouse model of middle cerebral artery occlusion-induced transient brain ischemia assessed as reduction in neurological deficits at 0.8 mg/kg, ip administered thrice measured after 24 hrs; assay type: functional, organism-based
[12] = test system: Mus musculus; assay: Neuroprotective activity in mouse model of middle cerebral artery occlusion-induced transient brain ischemia assessed as decrease in ischemic volume at 0.8 mg/kg, ip administered thrice measured after 24 hrs (reference value: 58 +/- 2.6 %); assay type: functional; parameters: scale not given: the % may be the effect or the level left
[13] = test system: Cortical neurone; assay: Neuroprotective activity in OGD/Rx-induced E16 Wistar rat Primary cortical neurons assessed as increase in cell viability at 0.13 uM incubated for 3 hrs during OGD followed by reoxygenation with compound re-addition measured after 21 hrs by MTT assay; assay type: functional, cell-based; conditions: time 24.0 hrs

SMILES | inhibition [1] | Activity [2] | inhibition [3] | IC50 [4] | Activity [5] | Activity [6] | Activity [7] | Activity [8] | Activity [9] | Activity [10] | Activity [11] | Activity [12] | Activity [13]
N=C(N)N/N=C/c1ccc(-c2cc(-c3ccc(F)cc3)n[nH]2)cc1 | 41.6% | Active | 83.6% | 2.59 µM | – | – | – | – | – | – | – | – | –
N=C(N)N/N=C/c1ccc(-c2cc(-c3ccc(Br)cc3)n[nH]2)cc1 | 24.6% | – | 86.2% | 1.99 µM | Dose-Dependent Effect | Active | Active | 44% | – | – | – | – | –
N=C(N)N/N=C/c1ccc(-c2cc(-c3ccc(F)cc3)on2)cc1 | 24.2% | – | 95.9% | 9.54 µM | – | – | – | – | Active | – | – | – | –
CC(C)(C)c1ccc(-c2cccc(-c3ccc(/C=N/NC(=N)N)cc3)c2)cc1 | – | – | – | 2.95 µM | – | – | – | – | – | Active | – | – | –
Br.Br.C(=N/NC1=NCCN1)/c1ccc(-c2cc(-c3ccc(/C=N/NC4=NCCN4)cc3)[nH]n2)cc1 | -3.26% | – | 50.6% | 0.972 µM | – | – | – | – | – | – | Active | 40.9% | Active
